# Measurements from PubChem BioAssay AID2060500 (Molecular Pharmacology Branch, DTP, NCI, 2025).
# Tested on: 596521-263-R-J1-PDC complex spheroids, viability % of control
# Assay: Anticancer human tumor 596521-263-R-J1-PDC patient-derived soft tissue sarcoma cell line growth inhibition [GQUAD]
# Details: for IC50: curve of first compound; for viability, T/C: stronger effect = lower value
# In short: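 Viability of tumor cells grown as complex spheroids with endothelial and stromal cells, exposed to drug combinations. Top concentration at or near clinical Cmax (else 10 microM), diluted in half-log increments.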
# [1] = second compound 0.0316 µM, first compound 0.0316 µM
# [2] = second compound 0.0316 µM, first compound 0.1 µM
# [3] = second compound 0.0316 µM, first compound 0.316 µM
# [4] = second compound 0.0316 µM, first compound 1 µM
# [5] = second compound 0.0316 µM, first compound 3.16 µM
# [6] = second compound 0.0316 µM, first compound 10 µM
# [7] = second compound 0.1 µM, first compound 0.0316 µM
# [8] = second compound 0.1 µM, first compound 0.1 µM
# [9] = second compound 0.1 µM, first compound 0.316 µM
# [10] = second compound 0.1 µM, first compound 1 µM
# [11] = second compound 0.1 µM, first compound 3.16 µM
# [12] = second compound 0.1 µM, first compound 10 µM
# [13] = second compound 0.316 µM, first compound 0.0316 µM
# [14] = second compound 0.316 µM, first compound 0.1 µM
# [15] = second compound 0.316 µM, first compound 0.316 µM
# [16] = second compound 0.316 µM, first compound 1 µM
# [17] = second compound 0.316 µM, first compound 3.16 µM
# [18] = second compound 0.316 µM, first compound 10 µM
# [19] = second compound 1 µM, first compound 0.0316 µM
# [20] = second compound 1 µM, first compound 0.1 µM
# [21] = second compound 1 µM, first compound 0.316 µM
# [22] = second compound 1 µM, first compound 1 µM
# [23] = second compound 1 µM, first compound 3.16 µM
# [24] = second compound 1 µM, first compound 10 µM
# [25] = second compound 3.16 µM, first compound 0.0316 µM
# [26] = second compound 3.16 µM, first compound 0.1 µM
# [27] = second compound 3.16 µM, first compound 0.316 µM
# [28] = second compound 3.16 µM, first compound 1 µM
# [29] = second compound 3.16 µM, first compound 3.16 µM
# [30] = second compound 3.16 µM, first compound 10 µM
# [31] = second compound 10 µM, first compound 0.0316 µM
# [32] = second compound 10 µM, first compound 0.1 µM
# [33] = second compound 10 µM, first compound 0.316 µM
# [34] = second compound 10 µM, first compound 1 µM
# [35] = second compound 10 µM, first compound 3.16 µM
# [36] = second compound 10 µM, first compound 10 µM
# 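Note: spheroids exposed to drugs for 7 days before viability reading.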
# 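Throughout, for viability, T/C: 100% = DMSO vehicle control viability.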
smiles,measurement,setting,value
CC1COCCN1c1cc(C2(O)CC3CCC(C2)O3)c2cnn(-c3ccn[nH]3)c2n1 (stereo not drawn) + Cc1cnc(CNC(=O)c2c(=O)c3ccc(N4CCCN(C)CC4)nc3n3c2sc2ccccc23)cn1,IC50,second compound 0.0316 µM,211 nM
same,IC50,second compound 0.1 µM,115 nM
same,IC50,second compound 0.316 µM,158 nM
same,IC50,second compound 1 µM,63.7 nM
same,IC50,second compound 3.16 µM,< 31.6 nM
same,IC50,second compound 10 µM,< 31.6 nM
same,"viability, T/C",[1],65.1%
same,"viability, T/C",[2],60.9%
same,"viability, T/C",[3],42.7%
same,"viability, T/C",[4],34.6%
same,"viability, T/C",[5],25.5%
same,"viability, T/C",[6],13.8%
same,"viability, T/C",[7],61%
same,"viability, T/C",[8],49.9%
same,"viability, T/C",[9],42.3%
same,"viability, T/C",[10],33%
same,"viability, T/C",[11],24.9%
same,"viability, T/C",[12],15.2%
same,"viability, T/C",[13],56.9%
same,"viability, T/C",[14],54%
same,"viability, T/C",[15],47.1%
same,"viability, T/C",[16],29.7%
same,"viability, T/C",[17],26.5%
same,"viability, T/C",[18],13.6%
same,"viability, T/C",[19],56.2%
same,"viability, T/C",[20],44.2%
same,"viability, T/C",[21],38.9%
same,"viability, T/C",[22],31.4%
same,"viability, T/C",[23],23.9%
same,"viability, T/C",[24],13.8%
same,"viability, T/C",[25],49.2%
same,"viability, T/C",[26],40.2%
same,"viability, T/C",[27],41.5%
same,"viability, T/C",[28],24.8%
same,"viability, T/C",[29],27.5%
same,"viability, T/C",[30],14.4%
same,"viability, T/C",[31],37.7%
same,"viability, T/C",[32],32.6%
same,"viability, T/C",[33],33.6%
same,"viability, T/C",[34],27.9%
same,"viability, T/C",[35],18.2%
same,"viability, T/C",[36],4.21%
CC1COCCN1c1cc(C2(S(C)(=N)=O)CC2)nc(-c2ccnc3[nH]ccc23)n1 (stereo not drawn) + Cc1cnc(CNC(=O)c2c(=O)c3ccc(N4CCCN(C)CC4)nc3n3c2sc2ccccc23)cn1,IC50,second compound 0.0316 µM,8980 nM
same,IC50,second compound 0.1 µM,6390 nM
same,IC50,second compound 0.316 µM,> 10000 nM
same,IC50,second compound 1 µM,6210 nM
same,IC50,second compound 3.16 µM,103 nM
same,IC50,second compound 10 µM,< 31.6 nM
same,"viability, T/C",[1],91.2%
same,"viability, T/C",[2],101%
same,"viability, T/C",[3],86.4%
same,"viability, T/C",[4],87.3%
same,"viability, T/C",[5],67.1%
same,"viability, T/C",[6],48.3%
same,"viability, T/C",[7],84%
same,"viability, T/C",[8],93.5%
same,"viability, T/C",[9],76.1%
same,"viability, T/C",[10],72.5%
same,"viability, T/C",[11],59.4%
same,"viability, T/C",[12],44.2%
same,"viability, T/C",[13],83%
same,"viability, T/C",[14],75.5%
same,"viability, T/C",[15],66.7%
same,"viability, T/C",[16],72.1%
same,"viability, T/C",[17],55.6%
same,"viability, T/C",[18],51.8%
same,"viability, T/C",[19],58%
same,"viability, T/C",[20],64.6%
same,"viability, T/C",[21],66.7%
same,"viability, T/C",[22],56.8%
same,"viability, T/C",[23],53%
same,"viability, T/C",[24],47.4%
same,"viability, T/C",[25],57%
same,"viability, T/C",[26],50.5%
same,"viability, T/C",[27],48.1%
same,"viability, T/C",[28],45.1%
same,"viability, T/C",[29],51.9%
same,"viability, T/C",[30],47%
same,"viability, T/C",[31],46.6%
same,"viability, T/C",[32],41.9%
same,"viability, T/C",[33],49.3%
same,"viability, T/C",[34],39.4%
same,"viability, T/C",[35],40.3%
same,"viability, T/C",[36],37.6%
COc1ccc([C@@H](O)c2cc(-c3ncnc4cc(N5CCOCC5)ccc34)c(F)cc2Cl)nn1 + Cc1cnc(CNC(=O)c2c(=O)c3ccc(N4CCCN(C)CC4)nc3n3c2sc2ccccc23)cn1,IC50,second compound 0.0316 µM,8520 nM
same,IC50,second compound 0.1 µM,1510 nM
same,IC50,second compound 0.316 µM,1690 nM
same,IC50,second compound 1 µM,635 nM
same,IC50,second compound 3.16 µM,294 nM
same,IC50,second compound 10 µM,< 31.6 nM
same,"viability, T/C",[1],99.7%
same,"viability, T/C",[2],80.7%
same,"viability, T/C",[3],79.4%
same,"viability, T/C",[4],77.2%
same,"viability, T/C",[5],49.2%
same,"viability, T/C",[6],51.3%
same,"viability, T/C",[7],92.3%
same,"viability, T/C",[8],88.4%
same,"viability, T/C",[9],67.5%
same,"viability, T/C",[10],50.5%
same,"viability, T/C",[11],54.6%
same,"viability, T/C",[12],38.7%
same,"viability, T/C",[13],84%
same,"viability, T/C",[14],77.6%
same,"viability, T/C",[15],63.6%
same,"viability, T/C",[16],57.1%
same,"viability, T/C",[17],42.9%
same,"viability, T/C",[18],37.4%
same,"viability, T/C",[19],64.5%
same,"viability, T/C",[20],58.2%
same,"viability, T/C",[21],58.9%
same,"viability, T/C",[22],42.5%
same,"viability, T/C",[23],43%
same,"viability, T/C",[24],37.6%
same,"viability, T/C",[25],55.7%
same,"viability, T/C",[26],59.6%
same,"viability, T/C",[27],45.2%
same,"viability, T/C",[28],45.9%
same,"viability, T/C",[29],40.3%
same,"viability, T/C",[30],35.4%
same,"viability, T/C",[31],45.4%
same,"viability, T/C",[32],27.4%
same,"viability, T/C",[33],42%
same,"viability, T/C",[34],38.3%
same,"viability, T/C",[35],36.3%
same,"viability, T/C",[36],11%
Cc1cccc(N(C)C(=O)C2C(O)CCN2c2nc(C)cc(C(F)(F)F)c2C#N)c1 (stereo not drawn) + Cc1cnc(CNC(=O)c2c(=O)c3ccc(N4CCCN(C)CC4)nc3n3c2sc2ccccc23)cn1,IC50,second compound 0.0316 µM,> 10000 nM
same,IC50,second compound 0.1 µM,> 10000 nM
same,IC50,second compound 0.316 µM,> 10000 nM
same,IC50,second compound 1 µM,> 10000 nM
same,IC50,second compound 3.16 µM,> 10000 nM
same,IC50,second compound 10 µM,3380 nM
same,"viability, T/C",[1],123%
same,"viability, T/C",[2],98.5%
same,"viability, T/C",[3],106%
same,"viability, T/C",[4],98.5%
same,"viability, T/C",[5],104%
same,"viability, T/C",[6],99.3%
same,"viability, T/C",[7],87%
same,"viability, T/C",[8],87%
same,"viability, T/C",[9],93.8%
same,"viability, T/C",[10],92.4%
same,"viability, T/C",[11],86.3%
same,"viability, T/C",[12],90.9%
same,"viability, T/C",[13],74.5%
same,"viability, T/C",[14],77.9%
same,"viability, T/C",[15],81.7%
same,"viability, T/C",[16],80.6%
same,"viability, T/C",[17],85.4%
same,"viability, T/C",[18],80.6%
same,"viability, T/C",[19],63.1%
same,"viability, T/C",[20],70.7%
same,"viability, T/C",[21],60.7%
same,"viability, T/C",[22],64.7%
same,"viability, T/C",[23],68.5%
same,"viability, T/C",[24],66.3%
same,"viability, T/C",[25],64.6%
same,"viability, T/C",[26],57.9%
same,"viability, T/C",[27],62%
same,"viability, T/C",[28],52.1%
same,"viability, T/C",[29],59%
same,"viability, T/C",[30],54.4%
same,"viability, T/C",[31],50.7%
same,"viability, T/C",[32],49.8%
same,"viability, T/C",[33],49.3%
same,"viability, T/C",[34],51.8%
same,"viability, T/C",[35],51%
same,"viability, T/C",[36],41.8%
